The values below come from PubChem BioAssay AID1919001 (Molecular Pharmacology Branch, DTP, NCI, 2023).

“And” between values parts separate entries of the source, which are not always exact repeats. Equal entries are not always repeated. Some results are limits rather than exact numbers.
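Note: compound exposure lasted 7 days after spheroids had grown for 3 days.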

The first test has as its system 699152-130-R-J1-PDC complex spheroid growth. Description: Anticancer human tumor 699152-130-R-J1-PDC patient-derived pancreatic carcinoma cell line growth inhibition [AhR]. Particulars: compound 0.0316 µM; stronger effect = lower value. Put shortly: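 Agents were dosed in half-log steps down from roughly clinical Cmax, or from 10 microM where Cmax was unknown, alone and with AhR antagonists. Read-out: percent test/control growth of tumor spheroids containing HUVEC and MSC stromal cells.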
As to `O=C(c1cc(Cc2n[nH]c(=O)c3ccccc23)ccc1F)N1CCN(C(=O)C2CC2)CC1`, the viability, T/C was 98.3% and 101% and 99.8%.

As for `NS(=O)(=O)OCC1CC(n2ccc3c(NC4CCc5ccccc54)ncnc32)CC1O` (stereo not given), the viability, T/C was 96.1% and 125% and 117%.

With `CC(C)c1c(-c2ccccc2)nc2c(C#N)c[nH]n2c1=O`, the viability, T/C is 108% and 92.1% and 105%.

Staying with this test, now noted: compound 0.1 µM; stronger effect = lower value.
Regarding `O=C(c1cc(Cc2n[nH]c(=O)c3ccccc23)ccc1F)N1CCN(C(=O)C2CC2)CC1`, the viability, T/C was 104% and 105% and 98.3%.

As to `NS(=O)(=O)OCC1CC(n2ccc3c(NC4CCc5ccccc54)ncnc32)CC1O` (stereo not given), the viability, T/C is 123% and 111% and 125%.

On to `CC(C)c1c(-c2ccccc2)nc2c(C#N)c[nH]n2c1=O`, for which the viability, T/C is 102% (2×) and 87.1%.

The same test, now with this note: compound 0.316 µM; stronger effect = lower value.
For the compound `O=C(c1cc(Cc2n[nH]c(=O)c3ccccc23)ccc1F)N1CCN(C(=O)C2CC2)CC1`, the viability, T/C is 101% and 95% and 92%.

For the compound `NS(=O)(=O)OCC1CC(n2ccc3c(NC4CCc5ccccc54)ncnc32)CC1O` (stereo not given), the viability, T/C was 127% and 113% and 129%.

Consider `CC(C)c1c(-c2ccccc2)nc2c(C#N)c[nH]n2c1=O`, for which the viability, T/C is 109% and 90% and 107%.

The test is the same for the next values; noted with them: compound 1 µM; stronger effect = lower value.
For the compound `O=C(c1cc(Cc2n[nH]c(=O)c3ccccc23)ccc1F)N1CCN(C(=O)C2CC2)CC1`, the viability, T/C was 104% and 102% and 95.3%.

For `NS(=O)(=O)OCC1CC(n2ccc3c(NC4CCc5ccccc54)ncnc32)CC1O` (stereo not given), the viability, T/C was 67.1% and 38% and 43.2%.

Take `CC(C)c1c(-c2ccccc2)nc2c(C#N)c[nH]n2c1=O`: the viability, T/C is 97.5% and 90.3% and 96%.

The test is the same for the next values; noted with them: compound 3.16 µM; stronger effect = lower value.
With `O=C(c1cc(Cc2n[nH]c(=O)c3ccccc23)ccc1F)N1CCN(C(=O)C2CC2)CC1`, the viability, T/C is 98.9% and 93% and 89.2%.

With `NS(=O)(=O)OCC1CC(n2ccc3c(NC4CCc5ccccc54)ncnc32)CC1O` (stereo not given), the viability, T/C is 18.2% and 19.7% and 24.9%.

For `CC(C)c1c(-c2ccccc2)nc2c(C#N)c[nH]n2c1=O`, the viability, T/C was 112% and 104% and 99.7%.

Staying with this test, now noted: compound 10 µM; stronger effect = lower value.
For `O=C(c1cc(Cc2n[nH]c(=O)c3ccccc23)ccc1F)N1CCN(C(=O)C2CC2)CC1`, the viability, T/C is 103% and 82.8% and 83.2%.

In the case of `NS(=O)(=O)OCC1CC(n2ccc3c(NC4CCc5ccccc54)ncnc32)CC1O` (stereo not given), the viability, T/C is 20.3% and 24% and 29.6%.

With `CC(C)c1c(-c2ccccc2)nc2c(C#N)c[nH]n2c1=O`, the viability, T/C is 107% and 88.4% and 99.3%.

Still in this test, the particulars now being: curve of compound.
On to `O=C(c1cc(Cc2n[nH]c(=O)c3ccccc23)ccc1F)N1CCN(C(=O)C2CC2)CC1`, for which the IC50 is greater than 10000 nM.

In the case of `NS(=O)(=O)OCC1CC(n2ccc3c(NC4CCc5ccccc54)ncnc32)CC1O` (stereo not given), the IC50 is 1510 nM and 832 nM and 802 nM.

As for `CC(C)c1c(-c2ccccc2)nc2c(C#N)c[nH]n2c1=O`, the IC50 was greater than 10000 nM.

Staying with this test, now noted: curve of first compound; second compound 0.1 µM.
With `CC1COCCN1c1cc(-c2ccnn2C)c2ccnc(-c3ccn[nH]3)c2n1` (stereo not given) + Cc1ccccc1N=Nc1ccc(NC(=O)c2ccnn2C)c(C)c1, the IC50 is greater than 1000 nM.

`NS(=O)(=O)OCC1CC(n2ccc3c(NC4CCc5ccccc54)ncnc32)CC1O` (stereo not given) + Cc1ccccc1N=Nc1ccc(NC(=O)c2ccnn2C)c(C)c1: the IC50 worked out at 807 nM.

On to `COc1ccc([C@@H](O)c2cc(-c3ncnc4cc(N5CCOCC5)ccc34)c(F)cc2Cl)nn1` + Cc1ccccc1N=Nc1ccc(NC(=O)c2ccnn2C)c(C)c1, for which the IC50 was 4780 nM.

For `CC1COCCN1c1cc(-c2ccnn2C)c2ccnc(-c3ccn[nH]3)c2n1` (stereo not given) + CC(CO)NC(=O)c1cc(-c2ccc(Cl)cc2)nn(-c2cnn(C)c2)c1=O, the IC50 is greater than 1000 nM.

Staying with this test, now noted: curve of first compound; second compound 0.316 µM.
Regarding `CC1COCCN1c1cc(-c2ccnn2C)c2ccnc(-c3ccn[nH]3)c2n1` (stereo not given) + Cc1ccccc1N=Nc1ccc(NC(=O)c2ccnn2C)c(C)c1, the IC50 was greater than 1000 nM.

For `NS(=O)(=O)OCC1CC(n2ccc3c(NC4CCc5ccccc54)ncnc32)CC1O` (stereo not given) + Cc1ccccc1N=Nc1ccc(NC(=O)c2ccnn2C)c(C)c1, the IC50 was 724 nM.

For `COc1ccc([C@@H](O)c2cc(-c3ncnc4cc(N5CCOCC5)ccc34)c(F)cc2Cl)nn1` + Cc1ccccc1N=Nc1ccc(NC(=O)c2ccnn2C)c(C)c1, the half-maximal inhibitory concentration (IC50) was found to be 4070 nM.

As to `CC1COCCN1c1cc(-c2ccnn2C)c2ccnc(-c3ccn[nH]3)c2n1` (stereo not given) + CC(CO)NC(=O)c1cc(-c2ccc(Cl)cc2)nn(-c2cnn(C)c2)c1=O, the IC50 is greater than 1000 nM.

The same test, now with this note: curve of first compound; second compound 1 µM.
On to `CC1COCCN1c1cc(-c2ccnn2C)c2ccnc(-c3ccn[nH]3)c2n1` (stereo not given) + Cc1ccccc1N=Nc1ccc(NC(=O)c2ccnn2C)c(C)c1, for which the IC50 was greater than 1000 nM.

`NS(=O)(=O)OCC1CC(n2ccc3c(NC4CCc5ccccc54)ncnc32)CC1O` (stereo not given) + Cc1ccccc1N=Nc1ccc(NC(=O)c2ccnn2C)c(C)c1: the IC50 came to 739 nM.

Consider `COc1ccc([C@@H](O)c2cc(-c3ncnc4cc(N5CCOCC5)ccc34)c(F)cc2Cl)nn1` + Cc1ccccc1N=Nc1ccc(NC(=O)c2ccnn2C)c(C)c1, for which the IC50 is 5290 nM.

Consider `CC1COCCN1c1cc(-c2ccnn2C)c2ccnc(-c3ccn[nH]3)c2n1` (stereo not given) + CC(CO)NC(=O)c1cc(-c2ccc(Cl)cc2)nn(-c2cnn(C)c2)c1=O, for which the IC50 was greater than 1000 nM.

The same test, now with this note: curve of first compound; second compound 3.16 µM.
Regarding `CC1COCCN1c1cc(-c2ccnn2C)c2ccnc(-c3ccn[nH]3)c2n1` (stereo not given) + Cc1ccccc1N=Nc1ccc(NC(=O)c2ccnn2C)c(C)c1, the IC50 is greater than 1000 nM.

As for `NS(=O)(=O)OCC1CC(n2ccc3c(NC4CCc5ccccc54)ncnc32)CC1O` (stereo not given) + Cc1ccccc1N=Nc1ccc(NC(=O)c2ccnn2C)c(C)c1, the half-inhibitory concentration (IC50) was found to be 694 nM.

For the compound `COc1ccc([C@@H](O)c2cc(-c3ncnc4cc(N5CCOCC5)ccc34)c(F)cc2Cl)nn1` + Cc1ccccc1N=Nc1ccc(NC(=O)c2ccnn2C)c(C)c1, the IC50 turned out to be 5320 nM.

In the case of `CC1COCCN1c1cc(-c2ccnn2C)c2ccnc(-c3ccn[nH]3)c2n1` (stereo not given) + CC(CO)NC(=O)c1cc(-c2ccc(Cl)cc2)nn(-c2cnn(C)c2)c1=O, the IC50 was greater than 1000 nM.

The same test, now with this note: curve of first compound; second compound 10 µM.
For `CC1COCCN1c1cc(-c2ccnn2C)c2ccnc(-c3ccn[nH]3)c2n1` (stereo not given) + Cc1ccccc1N=Nc1ccc(NC(=O)c2ccnn2C)c(C)c1, the IC50 is greater than 1000 nM.

`NS(=O)(=O)OCC1CC(n2ccc3c(NC4CCc5ccccc54)ncnc32)CC1O` (stereo not given) + Cc1ccccc1N=Nc1ccc(NC(=O)c2ccnn2C)c(C)c1: the IC50 came to 542 nM.

Regarding `COc1ccc([C@@H](O)c2cc(-c3ncnc4cc(N5CCOCC5)ccc34)c(F)cc2Cl)nn1` + Cc1ccccc1N=Nc1ccc(NC(=O)c2ccnn2C)c(C)c1, the IC50 was found to be 4790 nM.
